Laboratory results: ChEMBL document CHEMBL2034943, “Potentiating Metronidazole Scaffold against Resistant Trichomonas: Design, Synthesis, Biology and 3D-QSAR Analysis” (ACS Med Chem Lett, 2012)
In brackets after ≈: the same amount, converted by molar mass.

Assays:
[1] = tested on: Spermatozoa; assay: Spermicidal activity against human spermatozoa assessed as immobilization measured for 60 seconds; format: functional; design: concentration or dose not given beside the values
[2] = tested on: HeLa; assay: Cytotoxicity against human HeLa cells; format: cell-based
[3] = tested on: Trichomonas vaginalis; assay: Antitrichomonas activity against metronidazole-susceptible Trichomonas vaginalis; format: functional
[4] = tested on: Trichomonas vaginalis; assay: Antitrichomonas activity against metronidazole-resistant Trichomonas vaginalis ATCC 50143; format: functional
[5] = Toxicity against Lactobacillus jensenii ATCC 25258
[6] = tested on: Trichomonas vaginalis; assay: Ratio of MIC for metronidazole to compound for metronidazole-susceptible Trichomonas vaginalis; format: functional
[7] = tested on: Trichomonas vaginalis; assay: Ratio of MIC for metronidazole to compound for metronidazole-resistant Trichomonas vaginalis ATCC 50143; format: functional

Compound | Activity [1] [%] | IC50 [2] [µg/mL] | MIC [3] [µM] | MIC [4] [µM] | IC50 [5] [µg/mL] | Ratio [6] | Ratio [7]
Cc1ncc([N+](=O)[O-])n1CCSC(=S)N1CCC2(CC1)OCCO2 | <100 | > 1000 | 1.9 (≈ 0.708 µg/mL) | 26.9 (≈ 10 µg/mL) | > 1000 |  | 
Cc1ncc([N+](=O)[O-])n1CCSC(=S)N1CCC(=O)CC1 | <100 | > 1000 | 1.89 (≈ 0.621 µg/mL) | 30.5 (≈ 10 µg/mL) | 380 (≈ 1160 µM) |  | 
CCOC(=O)C1CCN(C(=S)SCCn2c([N+](=O)[O-])cnc2C)CC1 | 100 | 510 (≈ 1320 µM) | 3.24 (≈ 1.25 µg/mL) | 64.8 (≈ 25 µg/mL) | > 1000 |  | 
Cc1ncc([N+](=O)[O-])n1CCSC(=S)N1CCC(Cc2ccccc2)CC1 | 100 | > 1000 | 12.4 (≈ 5.02 µg/mL) | 49.5 (≈ 20 µg/mL) | > 1000 |  | 
Cc1ncc([N+](=O)[O-])n1CCSC(=S)N1CCC(C#N)(c2ccccc2)CC1 | <100 | > 1000 | 1.68 (≈ 0.698 µg/mL) | 24.1 (≈ 10 µg/mL) | > 1000 |  | 
Cc1ncc([N+](=O)[O-])n1CCSC(=S)N1CCC(O)CC1 | 100 | 930 (≈ 2810 µM) | 1.41 (≈ 0.466 µg/mL) | 30.3 (≈ 10 µg/mL) | 350 (≈ 1060 µM) |  | 
Cc1ncc([N+](=O)[O-])n1CCSC(=S)N1CCC(OC(=O)C(Cl)Cl)CC1 | 100 | > 1000 | 1.53 (≈ 0.675 µg/mL) | 56.7 (≈ 25 µg/mL) | 740 (≈ 1680 µM) |  | 
Cc1ncc([N+](=O)[O-])n1CCSC(=S)N1CCC(OS(C)(=O)=O)CC1 | 100 | > 1000 | 12.4 (≈ 5.07 µg/mL) | 61.3 (≈ 25 µg/mL) | > 1000 |  | 
Cc1ncc([N+](=O)[O-])n1CCSC(=S)N1CCC(OC(=O)CCl)CC1 | 100 | 930 (≈ 2290 µM) | 49.3 (≈ 20.1 µg/mL) | 246 (≈ 100 µg/mL) | 590 (≈ 1450 µM) |  | 
Cc1ncc([N+](=O)[O-])n1CCSC(=S)N1CCC(OC(=O)CN2CCCCC2)CC1 | <100 | 760 (≈ 1670 µM) | 1.37 (≈ 0.624 µg/mL) | 54.9 (≈ 25 µg/mL) | > 1000 |  | 
Cc1ncc([N+](=O)[O-])n1CCSC(=S)N1CCC(OC(=O)CN2CCOCC2)CC1 | <100 | 840 (≈ 1840 µM) | 1.36 (≈ 0.622 µg/mL) | 54.7 (≈ 25 µg/mL) | > 1000 |  | 
Cc1ncc([N+](=O)[O-])n1CCSC(=S)N1CCC(OC(=O)CSC(=S)N2CCCC2)CC1 | <100 | > 1000 | 2.41 (≈ 1.25 µg/mL) | 96.7 (≈ 50.1 µg/mL) | > 1000 |  | 
Cc1ncc([N+](=O)[O-])n1CCSC(=S)N1CCC(OC(=O)CSC(=S)N2CCCCC2)CC1 | <100 | 980 (≈ 1840 µM) | 2.35 (≈ 1.25 µg/mL) | 37.7 (≈ 20 µg/mL) | > 1000 |  | 
Cc1ncc([N+](=O)[O-])n1CCSC(=S)N1CCCCC1C (stereo not drawn) | 100 | 170 (≈ 518 µM) | 1.9 (≈ 0.624 µg/mL) | 15.2 (≈ 4.99 µg/mL) | > 1000 | 3 | 10
Cc1ncc([N+](=O)[O-])n1CCSC(=S)N1CCCC(C)C1 (stereo not drawn) | 100 | 170 (≈ 518 µM) | 1.9 (≈ 0.624 µg/mL) | 15.2 (≈ 4.99 µg/mL) | > 1000 | 3 | 10
Cc1ncc([N+](=O)[O-])n1CCSC(=S)N1CCC(C)CC1 | 100 | 190 (≈ 578 µM) | 1.03 (≈ 0.338 µg/mL) | 14.3 (≈ 4.7 µg/mL) | > 1000 | 10 | 20
CCC1CCCCN1C(=S)SCCn1c([N+](=O)[O-])cnc1C (stereo not drawn) | 100 | 94 (≈ 274 µM) | 3.65 (≈ 1.25 µg/mL) | 14.6 (≈ 5 µg/mL) | > 1000 | 3 | 10
Cc1ncc([N+](=O)[O-])n1CCSC(=S)N1C(C)CCCC1C (stereo not drawn) | 100 | 130 (≈ 380 µM) | 1.83 (≈ 0.627 µg/mL) | 29.2 (≈ 10 µg/mL) | > 1000 | 3 | 10
Cc1ncc([N+](=O)[O-])n1CCO [METRONIDAZOLE] | <100 | > 1000 | 11.7 (≈ 2 µg/mL) | 292 (≈ 50 µg/mL) | > 1000 |  | 
CCCCCCCCCc1ccc(OCCOCCOCCOCCOCCOCCOCCOCCOCCO)cc1 [NONOXYNOL 9] | 100 | 33 (≈ 53.5 µM) |  |  | 33 (≈ 53.5 µM) |  | 
